Experimental data as given in ChEMBL document CHEMBL5724914, “Linking interpersonal differences in gut microbiota composition and drug biotransformation activity” (2024).

What was measured:
[1] = human gut metagenome, 24 h, 2 µM
[2] = (§1) The drug is tested on WLS-086 corresponding to human gut metagenome with ENA study accession number: PRJEB37062 and ENA sample accession number: ERS12561752 for biotransformation under anaerobic condition. The drug concentrations were measured over 9 timepoints collected between 0 and 24 hours of incubation by liquid-chromatography-coupled mass spectrometry (LC–MS); details: 2 µM
[3] = human gut metagenome, 24 h, 2 µM; remark: listed apart in the source
[4] = as §1, with “Z-020” for “WLS-086”, “rabbit” for “human”, “ERS12561819” for “ERS12561752”; details: 2 µM
[5] = human gut metagenome, 24 h, 2 µM; remark: listed apart in the source
[6] = human gut metagenome, 24 h, 2 µM; remark: listed apart in the source
[7] = as §1, with “Z-014” for “WLS-086”, “rat” for “human”, “ERS12561814” for “ERS12561752”; details: 2 µM
[8] = as §1, with “Z-012” for “WLS-086”, “to” for “to human gut”, “ERS12561812” for “ERS12561752”; details: 2 µM
[9] = as §1, with “WLS-082” for “WLS-086”, “ERS12561751” for “ERS12561752”; details: 2 µM
[10] = as §1, with “WLS-010” for “WLS-086”, “ERS12561743” for “ERS12561752”; details: 2 µM
[11] = as §1, with “Z-029” for “WLS-086”, “rat” for “human”, “ERS12561828” for “ERS12561752”; details: 2 µM
[12] = as §1, with “Z-023” for “WLS-086”, “to” for “to human gut”, “ERS12561822” for “ERS12561752”; details: 2 µM
[13] = human gut metagenome, 24 h, 2 µM; remark: listed apart in the source
[14] = human gut metagenome, 24 h, 2 µM; remark: listed apart in the source
[15] = human gut metagenome, 24 h, 2 µM; remark: listed apart in the source
[16] = as §1, with “Z-017” for “WLS-086”, “mouse” for “human”, “ERS12561816” for “ERS12561752”; details: 2 µM
[17] = as §1, with “Z-022” for “WLS-086”, “mouse” for “human”, “ERS12561821” for “ERS12561752”; details: 2 µM
[18] = as §1, with “Z-026” for “WLS-086”, “to” for “to human gut”, “ERS12561825” for “ERS12561752”; details: 2 µM
[19] = human gut metagenome, 24 h, 2 µM; remark: listed apart in the source
[20] = as §1, with “WLS-170” for “WLS-086”, “ERS12561762” for “ERS12561752”; details: 2 µM
Further: call rule not given here.

Row | Compound | Bacterial Biotransformation [1] | Bacterial Biotransformation [2] | Bacterial Biotransformation [3] | Bacterial Biotransformation [4] | Bacterial Biotransformation [5] | Bacterial Biotransformation [6] | Bacterial Biotransformation [7] | Bacterial Biotransformation [8] | Bacterial Biotransformation [9] | Bacterial Biotransformation [10] | Bacterial Biotransformation [11] | Bacterial Biotransformation [12] | Bacterial Biotransformation [13] | Bacterial Biotransformation [14] | Bacterial Biotransformation [15] | Bacterial Biotransformation [16] | Bacterial Biotransformation [17] | Bacterial Biotransformation [18] | Bacterial Biotransformation [19] | Bacterial Biotransformation [20]
1 | Nc1nc(NC2CC2)c2ncn([C@H]3C=C[C@@H](CO)C3)c2n1.Nc1nc(NC2CC2)c2ncn([C@H]3C=C[C@@H](CO)C3)c2n1.O=S(=O)(O)O [ABACAVIR SULFATE] | Compound metabolized | Compound metabolized | Compound metabolized | Compound NOT metabolized | Compound metabolized | Compound metabolized | Compound NOT metabolized | Compound NOT metabolized | Compound NOT metabolized | Compound NOT metabolized | Compound NOT metabolized | Compound NOT metabolized | Compound metabolized | Compound NOT metabolized | Compound metabolized | Compound NOT metabolized | Compound metabolized | Compound NOT metabolized | Compound metabolized | Compound metabolized
2 | CCN(CC)CCNC(=O)c1ccc(NC(C)=O)cc1 [ACECAINIDE] | Compound metabolized | Compound metabolized | Compound metabolized | Compound NOT metabolized | Compound NOT metabolized | Compound NOT metabolized | Compound NOT metabolized | Compound NOT metabolized | Compound NOT metabolized | Compound NOT metabolized | Compound NOT metabolized | Compound NOT metabolized | Compound metabolized | Compound NOT metabolized | Compound NOT metabolized | Compound NOT metabolized | Compound NOT metabolized | Compound NOT metabolized | Compound NOT metabolized | Compound metabolized
3 | O=C1CN2Cc3c(ccc(Cl)c3Cl)N=C2N1 [ANAGRELIDE] | Compound metabolized | Compound metabolized | Compound metabolized | Compound NOT metabolized | Compound metabolized | Compound metabolized | Compound NOT metabolized | Compound NOT metabolized | Compound metabolized | Compound metabolized | Compound NOT metabolized | Compound metabolized | Compound metabolized | Compound NOT metabolized | Compound NOT metabolized | Compound NOT metabolized | Compound metabolized | Compound NOT metabolized | Compound NOT metabolized | Compound metabolized
4 | CN(C)C(=O)Oc1cc(OC(=O)N(C)C)cc(C(O)CNC(C)(C)C)c1 (stereo not given) [BAMBUTEROL] | Compound metabolized | Compound metabolized | Compound metabolized | Compound NOT metabolized | Compound NOT metabolized | Compound NOT metabolized | Compound NOT metabolized | Compound NOT metabolized | Compound NOT metabolized | Compound NOT metabolized | Compound NOT metabolized | Compound metabolized | Compound metabolized | Compound NOT metabolized | Compound NOT metabolized | Compound NOT metabolized | Compound metabolized | Compound NOT metabolized | Compound metabolized | Compound NOT metabolized
5 | CCc1oc2ccccc2c1C(=O)c1cc(Br)c(O)c(Br)c1 [BENZBROMARONE] | Compound metabolized | Compound metabolized | Compound metabolized | Compound metabolized | Compound NOT metabolized | Compound NOT metabolized | Compound NOT metabolized | Compound NOT metabolized | Compound metabolized | Compound metabolized | Compound NOT metabolized | Compound NOT metabolized | Compound metabolized | Compound metabolized | Compound NOT metabolized | Compound NOT metabolized | Compound NOT metabolized | Compound NOT metabolized | Compound metabolized | Compound metabolized
6 | O=C1CC2(CCCC2)CC(=O)N1CCCCN1CCN(c2ncccn2)CC1 [BUSPIRONE] | Compound metabolized | Compound metabolized | Compound metabolized | Compound NOT metabolized | Compound NOT metabolized | Compound metabolized | Compound NOT metabolized | Compound NOT metabolized | Compound NOT metabolized | Compound NOT metabolized | Compound NOT metabolized | Compound metabolized | Compound metabolized | Compound NOT metabolized | Compound NOT metabolized | Compound NOT metabolized | Compound NOT metabolized | Compound NOT metabolized | Compound NOT metabolized | Compound metabolized
7 | CCCC(C)(COC(N)=O)COC(=O)NC(C)C (stereo not given) [CARISOPRODOL] | Compound metabolized | Compound metabolized | Compound NOT metabolized | Compound metabolized | Compound metabolized | Compound metabolized | Compound metabolized | Compound metabolized | Compound metabolized | Compound metabolized | Compound NOT metabolized | Compound metabolized | Compound metabolized | Compound metabolized | Compound NOT metabolized | Compound NOT metabolized | Compound metabolized | Compound NOT metabolized | Compound metabolized | Compound metabolized
8 | COc1ccccc1OCCNCC(O)COc1cccc2[nH]c3ccccc3c12 (stereo not given) [CARVEDILOL] | Compound metabolized | Compound metabolized | Compound metabolized | Compound NOT metabolized | Compound NOT metabolized | Compound metabolized | Compound NOT metabolized | Compound NOT metabolized | Compound metabolized | Compound metabolized | Compound NOT metabolized | Compound metabolized | Compound metabolized | Compound NOT metabolized | Compound NOT metabolized | Compound NOT metabolized | Compound NOT metabolized | Compound NOT metabolized | Compound metabolized | Compound metabolized
